Here are results for four compounds from patent US12144785B2, “Composition of vitamin K and vitamin D for treating or preventing cardiovascular disease” (NATTOPHARMA AS, priority 2002, dated 2024).

This assay has as its system thoracic aorta. Description: Aortic calcification in warfarin-treated rats: total calcium in thoracic aorta extract by atomic absorptiometry. The format is in vivo. The note with it: for Pre-formed calcium crystals / aortic calcification on high vitamin K diet: "high K": 6 weeks warfarin, then 6 weeks diet with 100 μg/g vitamin K, FIG. 6, means of K1 and K2 groups; for Difference between the outcomes for K1 and K2: high vitamin K diet after 6 weeks warfarin. Here is the method: We performed and experiment using 48 rats. Each point in the various curves shown in FIGS. 3-6 is the mean of six rats, which were sacrificed. The thoracic aorta was dissected, homogenized, and precipitated calcium salts were dissolved in formic acid. The total calcium concentration in the extract was assessed by atomic absorptiometry, and is expressed as microgram calcium per gram of tissue.
Six of them were killed at baseline, six after 6 weeks, and the last six after 12 weeks. Apart from the cellular calcium, no accretion of calcium was observed during the test period. […] The protocol used involves the oral administration of a mixture of warfarin (3 mg/g of food) and vitamin K1 (1.5 mg/g of food) and is explained extensively in: H. M. H. Spronk et al, Tissue-specific utilization of menaquinone-4 results in the prevention of arterial calcification in warfarin-treated rats, Journal of Vascular Research 2003; 40:531-537. This treatment is designated as “low K”. Six rats were killed after 6 weeks of treatment, and another six after 12 weeks of treatment.
The other rats were first treated for six weeks with warfarin. One group of animals was subsequently fed the standard diet containing 5 μg vitamin K per g of food (indicated as “norm K”). […] Apparently, the presence of calcium precipitates is a sufficient trigger to continue further calcification (see FIG. 5) when using a normal diet.
Finally, we used two groups of six rats who had received the first 6-week treatment with warfarin, and a high vitamin K diet in the second 6-week period. One group received a diet containing […] of vitamin K1, the other one a diet containing 100 μg/g of vitamin K2 (menaquinone-4). Since there was no difference between the outcomes for K1 and K2, we present the means of both groups in FIG. 6 (designated as “high K”). […] This may be related to the relatively high dose used, and different efficacies may still be found from dose-response experiments. […] It may be expected that after prolonged treatment all calcified precipitates will dissolve by high vitamin K intake. The dose used for dissolving calcified precipitates in the aorta was 20 times the normal dose used (compared to the recommended allowance in humans). If extrapolated to humans the effective intake of vitamin K should thus be increased from 100 μg/day to 2 mg/day. Experiments in which lower doses are used will be initiated. However, it is likely that a similar effect will be observed at lower doses, even as low as 1-2 times the normal daily intake. This will depend upon factors such as vitamin K absorption since synthetic supplemented vitamin K is typically absorbed better (e.g. 10-20 fold) than nutritional vitamin K (e.g. which may be bound to chloroplasts in the food matrix).

`CC(=O)CC(c1ccccc1)c1c(O)c2ccccc2oc1=O` (stereo not drawn) [warfarin]: the “Calcium in the arterial wall” value ("low K": warfarin 3 mg/g food + vitamin K1 1.5 mg/g food, oral, 6 and 12 weeks, FIG. 4) is “constant increase”.
Take `CC1=C(C/C=C(\C)CCC[C@H](C)CCC[C@H](C)CCCC(C)C)C(=O)c2ccccc2C1=O` [vitamin K1, phylloquinone]: the “Pre-formed calcium crystals / aortic calcification on high vitamin K diet” value is recorded as “dissolved to a great deal”; the “Difference between the outcomes for K1 and K2” value is reported as “no difference”.
The like results for `CC(C)=CCC/C(C)=C/CC/C(C)=C/CC/C(C)=C/CC1=C(C)C(=O)c2ccccc2C1=O` [vitamin K2, menaquinone-4] were, in that order, “dissolved to a great deal” and “no difference”.
On to vitamin K, for which the “Aortic calcification after change to the standard diet” value ("norm K": 6 weeks warfarin, then standard diet with 5 μg vitamin K per g of food, FIG. 5) is listed as “did not stop”.
